Test results published in patent US12325697B2 (Nimbus Clio, Inc., priority 2021, dated 2025).
One block for each compound: values may come before it.

Assays:
[1] = system: Jurkat (clone E6-1) cells, NFAT luciferase reporter; assay: Jurkat Reporter Assay (NFAT Luciferase); type: cell-based; conditions: Homo sapiens, anti-CD3 stimulation, 6 hr, read-out: Jurkat NFAT EC50
[2] = biological target: Recombinant human Cbl-b (aa 36-427) (Homo sapiens (Human), UniProt Q13191); assay: Cbl-b Biochemical Assay (TR-FRET); conditions: read-out: TR-FRET hCbl-b IC50
Method in brief: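 IC50 from 4-parameter fit of % inhibition (DMSO max, reference-inhibitor min), duplicate ten-point series. Compound preincubated with 6 nM Cbl-b, then Src-Zap70 (1-2.5 nM)/0.5 mM ATP reaction 60 min RT; EDTA quench with labelled UBE2D2-Ub and streptavidin-terbium, 60 min, HTRF at 520 nm.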

[3] = biological target: Recombinant human c-Cbl (aa 47-435) (Homo sapiens (Human), UniProt P22681); assay: c-Cbl Biochemical Assay (TR-FRET)
Method in brief: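 TR-FRET binding of UBE2D2-Ub-Bodipy (100 nM) to biotinylated c-Cbl (aa 47-435, 6 nM) via Streptavidin-Tb, measured after c-Cbl activation by Src-Zap70 with 0.5 mM ATP (60-90 min RT, 30 min compound preincubation). Ten-point half-log dilutions, 1% DMSO; IC50 by 4-parameter fit of normalized inhibition.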

Chain of Recombinant human Cbl-b (aa 36-427) (Q13191 36-427): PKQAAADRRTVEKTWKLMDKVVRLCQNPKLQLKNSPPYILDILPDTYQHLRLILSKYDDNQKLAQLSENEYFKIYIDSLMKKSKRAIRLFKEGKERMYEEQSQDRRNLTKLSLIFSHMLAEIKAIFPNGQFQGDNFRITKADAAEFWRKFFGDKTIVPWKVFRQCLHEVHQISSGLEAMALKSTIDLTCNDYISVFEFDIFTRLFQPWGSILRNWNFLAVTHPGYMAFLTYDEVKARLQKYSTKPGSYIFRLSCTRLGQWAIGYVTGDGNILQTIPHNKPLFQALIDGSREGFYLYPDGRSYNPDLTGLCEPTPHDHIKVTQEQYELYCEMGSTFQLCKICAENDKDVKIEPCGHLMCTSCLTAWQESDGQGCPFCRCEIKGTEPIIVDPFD
Chain of Recombinant human c-Cbl (aa 47-435) (P22681 47-435): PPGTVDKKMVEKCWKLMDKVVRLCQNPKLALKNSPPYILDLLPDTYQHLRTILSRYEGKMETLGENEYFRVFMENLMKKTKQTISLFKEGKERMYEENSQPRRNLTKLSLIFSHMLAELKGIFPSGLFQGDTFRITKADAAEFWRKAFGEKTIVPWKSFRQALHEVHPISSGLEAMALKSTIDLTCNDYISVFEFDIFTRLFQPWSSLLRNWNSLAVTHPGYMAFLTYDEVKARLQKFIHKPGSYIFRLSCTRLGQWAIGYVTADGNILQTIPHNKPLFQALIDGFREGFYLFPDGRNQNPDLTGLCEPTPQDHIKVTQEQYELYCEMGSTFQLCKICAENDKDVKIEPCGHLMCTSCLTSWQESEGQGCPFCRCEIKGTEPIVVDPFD

Structure (SMILES): Cn1cnnc1-c1ccccc1-c1cc(N2Cc3c(cc(CO)cc3C(F)(F)F)C2=O)nc(N2Cc3c(cc(CO)cc3C(F)(F)F)C2=O)c1 [ACX-2, 6-(Hydroxymethyl)-2-{6-[6-(hydroxymethyl)-1-oxo-4-(trifluoromethyl)-3H-isoindol-2-yl]-4-[2-(4-methyl-1,2,4-triazol-3-yl)phenyl]pyridin-2-yl}-4-(trifluoromethyl)-3H-isoindol-1-one]
EC50 [1]: 10000 to 50000 nM
IC50 [2]: 10000 to 50000 nM

Structure (SMILES): CCNc1cc(-c2c(-c3nncn3C)cnn2C)cc(N2Cc3c(cc(CNCCOCCOCCOCCNC(=O)CCc4ccc5n4[B-](F)(F)[N+]4=C(c6ccc[nH]6)C=CC4=C5)cc3C(F)(F)F)C2=O)n1 [ACZ-5]
EC50 [1]: 10000 to 50000 nM
IC50 [2]: ≤ 200 nM

EC50 [1]: 1000 to 10000 nM
Structure (SMILES): CCNc1cc(-c2c(-c3nncn3C)cnn2C)cc(N2Cc3c(cc(COC4CCN(C)CC4)cc3C(F)(F)F)C2=O)n1 [ADA-2, 2-[6-(Ethylamino)-4-[2-methyl-4-(4-methyl-1,2,4-triazol-3-yl)pyrazol-3-yl]pyridin-2-yl]-6-{[(1-methylpiperidin-4-yl)oxy]methyl}-4-(trifluoromethyl)-3H-isoindol-1-one]

Structure (SMILES): CCNc1cc(-c2c(-c3nncn3C)cnn2C)cc(N2Cc3c(cc(CNCCOCCOCCOCCNC(=O)CCc4ccc5n4[B-](F)(F)[N+]4=C(C)C=C(C)C4=C5)cc3C(F)(F)F)C2=O)n1 [ADD-2, 4-{2-[(1-{2-[6-(Ethylamino)-4-[2-methyl-4-(4-methyl-1,2,4-triazol-3-yl)pyrazol-3-yl]pyridin-2-yl]-3-oxo-7-(trifluoromethyl)-1H-isoindol-5-yl}-5,8,11-trioxa-2-azatridecan-13-yl)carbamoyl]ethyl}-2,2-difluoro-10,12-dimethyl-1lambda5,3-diaza-2-boratricyclo[7.3.0.0^{3,7}]dodeca-1(12),4,6,8,10-pentaen-1-ylium-2-uide]
EC50 [1]: 10000 to 50000 nM
IC50 [2]: 10000 to 50000 nM

Structure (SMILES): CCNc1cc(-c2c(-c3nncn3C)cnn2C)cc(N2Cc3c(cc(COc4cnoc4)cc3C(F)(F)F)C2=O)n1 [ADE-2, 2-[6-(Ethylamino)-4-[2-methyl-4-(4-methyl-1,2,4-triazol-3-yl)pyrazol-3-yl]pyridin-2-yl]-6-[(1,2-oxazol-4-yloxy)methyl]-4-(trifluoromethyl)-3H-isoindol-1-one]
EC50 [1]: 1000 to 10000 nM
IC50 [2]: ≤ 200 nM

Structure (SMILES): Cn1cnnc1-c1cc(C#N)ccc1-c1cccc(N2Cc3c(cc(CO)cc3C(F)(F)F)C2=O)c1 [ADG-3, 3′-[6-(Hydroxymethyl)-1-oxo-4-(trifluoromethyl)-3H-isoindol-2-yl]-2-(4-methyl-1,2,4-triazol-3-yl)-[1,1′-biphenyl]-4-carbonitrile]
EC50 [1]: 10000 to 50000 nM
IC50 [2]: ≤ 200 nM

Structure (SMILES): CCNc1cc(-c2c(-c3nncn3C)cnn2C)cc(N2Cc3c(cc(CO[C@H]4CCC[C@H]4O)cc3C(F)(F)F)C2=O)n1 [ADI-1, 2-[6-(Ethylamino)-4-[2-methyl-4-(4-methyl-1,2,4-triazol-3-yl)pyrazol-3-yl]pyridin-2-yl]-6-({[(1S,2R)-2-hydroxycyclopentyl]oxy}methyl)-4-(trifluoromethyl)-3H-isoindol-1-one]
EC50 [1]: 200 to 1000 nM
IC50 [2]: ≤ 200 nM

Structure (SMILES): Cn1cnnc1-c1cc(C(N)=O)ccc1-c1cccc(N2Cc3c(cc(CO)cc3C(F)(F)F)C2=O)c1 [ADK-1, 3′-[6-(Hydroxymethyl)-1-oxo-4-(trifluoromethyl)-3H-isoindol-2-yl]-2-(4-methyl-1,2,4-triazol-3-yl)-[1,1′-biphenyl]-4-carboxamide]
EC50 [1]: 10000 to 50000 nM
IC50 [2]: 1000 to 10000 nM

Structure (SMILES): Cn1cnnc1-c1ccccc1-c1cccc(N2Cc3c(cc(CO[C@@H]4CCC[C@H]4O)cc3C(F)(F)F)C2=O)c1 [ADL-4, 6-({[(1R,2R)-2-Hydroxycyclopentyl]oxy}methyl)-2-[2′-(4-methyl-1,2,4-triazol-3-yl)-[1,1′-biphenyl]-3-yl]-4-(trifluoromethyl)-3H-isoindol-1-one]
EC50 [1]: 1000 to 10000 nM
IC50 [2]: ≤ 200 nM

Structure (SMILES): Cn1cnnc1-c1ccc(C#N)cc1-c1cccc(N2Cc3c(cc(CO)cc3C(F)(F)F)C2=O)c1 [ADM-6, 3′-[6-(Hydroxymethyl)-1-oxo-4-(trifluoromethyl)-3H-isoindol-2-yl]-6-(4-methyl-1,2,4-triazol-3-yl)-[1,1′-biphenyl]-3-carbonitrile]
EC50 [1]: 10000 to 50000 nM
IC50 [2]: 200 to 1000 nM

Structure (SMILES): CCNc1cc(-c2cc(C#N)ccc2-c2nncn2C)cc(N2Cc3c(cccc3C(F)(F)F)C2=O)n1 [ADS-6, 3-[2-(Ethylamino)-6-[1-oxo-4-(trifluoromethyl)-3H-isoindol-2-yl]pyridin-4-yl]-4-(4-methyl-1,2,4-triazol-3-yl)benzonitrile]
EC50 [1]: 1000 to 10000 nM
IC50 [2]: ≤ 200 nM

Structure (SMILES): Cn1cnnc1-c1cc(C#N)ccc1-c1cccc(C(=O)Nc2cc(CN[C@@H]3CCC[C@@H]3O)cc(C(F)(F)F)c2N)c1 [ADW-5, N-[2-Amino-5-({[(1R,2S)-2-hydroxycyclopentyl]amino}methyl)-3-(trifluoromethyl)phenyl]-4′-cyano-2′-(4-methyl-1,2,4-triazol-3-yl)-[1,1′-biphenyl]-3-carboxamide]
EC50 [1]: 10000 to 50000 nM
IC50 [2]: 1000 to 10000 nM

Structure (SMILES): CCNc1cc(-c2c(-c3nncn3C)cnn2C)cc(N2Cc3c(cc(COCC(C)(C)O)cc3C(F)(F)F)C2=O)n1 [ADY-2, 2-[6-(Ethylamino)-4-[2-methyl-4-(4-methyl-1,2,4-triazol-3-yl)pyrazol-3-yl]pyridin-2-yl]-6-[(2-hydroxy-2-methylpropoxy)methyl]-4-(trifluoromethyl)-3H-isoindol-1-one]
EC50 [1]: 200 to 1000 nM
IC50 [2]: ≤ 200 nM

Structure (SMILES): Cn1cnnc1-c1cc(C#N)ccc1-c1cccc(N2Cc3c(cc(CNCCO)cc3C(F)(F)F)C2=O)c1 [AEA-2, 3′-(6-{[(2-Hydroxyethyl)amino]methyl}-1-oxo-4-(trifluoromethyl)-3H-isoindol-2-yl)-2-(4-methyl-1,2,4-triazol-3-yl)-[1,1′-biphenyl]-4-carbonitrile]
EC50 [1]: 1000 to 10000 nM
IC50 [2]: ≤ 200 nM

Structure (SMILES): CCNc1cc(-c2c(-c3nncn3C)cnn2C)cc(N2Cc3ccc(CNCC4(O)CCC4)cc3C2=O)n1 [AEE-2, 2-[6-(Ethylamino)-4-[2-methyl-4-(4-methyl-1,2,4-triazol-3-yl)pyrazol-3-yl]pyridin-2-yl]-6-({[(1-hydroxycyclobutyl)methyl]amino}methyl)-3H-isoindol-1-one]
EC50 [1]: 200 to 1000 nM
IC50 [2]: ≤ 200 nM

Structure (SMILES): Cn1cnnc1-c1cc(C#N)ccc1-c1cc(C2CC2)nc(N2Cc3ccc(CN4CCOC5(COC5)C4)cc3C2=O)c1 [AOO-2, 4-[2-Cyclopropyl-6-(6-{2,5-dioxa-8-azaspiro[3.5]nonan-8-ylmethyl}-1-oxo-3H-isoindol-2-yl)pyridin-4-yl]-3-(4-methyl-1,2,4-triazol-3-yl)benzonitrile]
IC50 [3]: ≤ 200 nM
IC50 [2]: ≤ 200 nM

Structure (SMILES): Cn1cnnc1-c1cc(C#N)ccc1-c1cc(C2CC2)nc(N2Cc3ccc(C(C)(C)NCC4CCC4)cc3C2=O)c1 [AOS-2, 4-[2-(6-{2-[(Cyclobutylmethyl)amino]propan-2-yl}-1-oxo-3H-isoindol-2-yl)-6-cyclopropylpyridin-4-yl]-3-(4-methyl-1,2,4-triazol-3-yl)benzonitrile]
IC50 [3]: ≤ 200 nM
IC50 [2]: ≤ 200 nM

Structure (SMILES): Cn1cnnc1-c1cc(C#N)ccc1-c1cc(C2CC2)nc(N2Cc3c(F)cc(CN4CC[C@@H]5COC[C@H]54)cc3C2=O)c1 [AOU-1, 4-(2-Cyclopropyl-6-(4-fluoro-6-(((3aS,6aS)-hexahydro-1H-furo[3,4-b]pyrrol-1-yl)methyl)-1-oxoisoindolin-2-yl)pyridin-4-yl)-3-(4-methyl-4H-1,2,4-triazol-3-yl)benzonitrile]
IC50 [3]: ≤ 200 nM
IC50 [2]: ≤ 200 nM

Structure (SMILES): COC[C@H]1CCN1Cc1cc(F)c2c(c1)C(=O)N(c1cc(-c3ccc(C#N)cc3-c3nncn3C)cc(C3CC3)n1)C2 [AOW-2, 4-[2-Cyclopropyl-6-(4-fluoro-6-{[(2R)-2-(methoxymethyl)azetidin-1-yl]methyl}-1-oxo-3H-isoindol-2-yl)pyridin-4-yl]-3-(4-methyl-1,2,4-triazol-3-yl)benzonitrile]
IC50 [3]: ≤ 200 nM
IC50 [2]: ≤ 200 nM

Structure (SMILES): Cn1cnnc1-c1cc(C#N)ccc1-c1cc(C2CC2)nc(N2Cc3c(cc(CNCC4(O)CCC4)c(F)c3F)C2=O)c1 [AOX-1, 4-{2-Cyclopropyl-6-[4,5-difluoro-6-({[(1-hydroxycyclobutyl)methyl]amino}methyl)-1-oxo-3H-isoindol-2-yl]pyridin-4-yl}-3-(4-methyl-1,2,4-triazol-3-yl)benzonitrile]
IC50 [3]: ≤ 200 nM
IC50 [2]: ≤ 200 nM

Structure (SMILES): COC[C@@H]1CCCN1Cc1cc(F)c2c(c1)C(=O)N(c1cc(-c3ccc(C#N)cc3-c3nncn3C)cc(C3CC3)n1)C2 [AOY-2, (S)-4-(2-Cyclopropyl-6-(4-fluoro-6-((2-(methoxymethyl)pyrrolidin-1-yl)methyl)-1-oxoisoindolin-2-yl)pyridin-4-yl)-3-(4-methyl-4H-1,2,4-triazol-3-yl)benzonitrile]
IC50 [3]: ≤ 200 nM
IC50 [2]: ≤ 200 nM

Structure (SMILES): Cn1cnnc1-c1cc(C#N)ccc1-c1cc(C2CC2)nc(N2Cc3c(F)cc(CN4CCC[C@H]4CF)cc3C2=O)c1 [APA-2, 4-[2-Cyclopropyl-6-(4-fluoro-6-{[(2S)-2-(fluoromethyl)pyrrolidin-1-yl]methyl}-1-oxo-3H-isoindol-2-yl)pyridin-4-yl]-3-(4-methyl-1,2,4-triazol-3-yl)benzonitrile]
IC50 [3]: ≤ 200 nM
IC50 [2]: ≤ 200 nM

Structure (SMILES): COC[C@H]1CCCN1Cc1cc(F)c2c(c1)C(=O)N(c1cc(-c3ccc(C#N)cc3-c3nncn3C)cc(C3CC3)n1)C2 [APB-2, 4-[2-Cyclopropyl-6-(4-fluoro-6-{[(2R)-2-(methoxymethyl)pyrrolidin-1-yl]methyl}-1-oxo-3H-isoindol-2-yl)pyridin-4-yl]-3-(4-methyl-1,2,4-triazol-3-yl)benzonitrile]
IC50 [3]: ≤ 200 nM
IC50 [2]: ≤ 200 nM
